Series [1] can be described thus: Stability of radiotracers in human serum (radio-HPLC). Particulars: 37 °C, 120 min, mean ± SD, read-out: Stability: intact radiotracer after 120 min of incubation in human serum. It is filed as in vitro ADME. On the procedure:
In addition to the investigation of the radiotracers’ lipophilicity, their stability in human serum was evaluated in order to determine possible stability issues of the newly developed agents. For this purpose, the respective ^18F-labeled HBPLs were incubated in human serum at 37 °C for 120 min. The results of these experiments are summarized in Table 1, and the corresponding radio-HPLC chromatograms for [^18F]2 as representative examples for all compounds studied are depicted in Figure 3A (see Supplementary Materials, Figure S91 for the results obtained for the other radioligands). In Figure 3B, the portions of intact radiotracer over the course of the stability experiments are depicted.
The radiotracer solutions were first diluted with 0.9% NaCl solution to give a final EtOH concentration of <10%. Then, 6 × 25 μL radiotracer solution was added to 6 × 100 μL human serum and incubated at 37°C for 120 min. At defined time points (5, 15, 30, 60, 90 and 120 min), 125 μL EtOH was added to one of the mixtures and the precipitation of serum proteins was supported by ice-cooling for 2 min. After centrifugation at 13.4 rpm for 2 min, the supernatant was analyzed by analytical radio-HPLC (0–100% MeCN + 0.1% TFA in 5 min). The experiment was performed for each compound trice by three independent experiments.

Series [2] is described as follows: Ex vivo biodistribution: uptake in U87MG tumors and tumor-to-organ ratios. The arrangement: species or system nude mice (Balb/cAnNRj-Foxn1nu/nu). Particulars: male, Balb/cAnNRj-Foxn1nu/nu (nude), mouse, iv, total radioactivity; for tissue uptake: U87MG tumor (integrin αvβ3-positive); for tissue uptake / tissue uptake at 1.5 h: ex vivo after PET/CT scan, i.v., n = 3; for tissue to tissue ratio: ex vivo biodistribution, mean (n = 3) ± SD; for tissue uptake at 1.5 h: U87MG tumor. On the procedure: (§1) For the evaluation of the in vivo pharmacokinetics, the two most promising HBPLs—[^18F]2 with the highest affinity to both target receptors and [^18F]4 with the highest hydrophilicity and still reasonable binding affinities—were selected. For PET/CT imaging, 6-week-old male nude mice (Balb/cAnNRj-Foxn1^nu/nu) were subcutaneously injected with 5 × 10^5 B16F10 cells into the right flank and 2.0–2.5 × 10^6 U87MG cells into the left flank to generate the respective receptor-positive tumors. When the tumors reached a sufficient size for imaging, each mouse was administered 4.15 ± 2.28 MBq of [^18F]2 or 3.95 ± 2.06 MBq of [^18F]4 via the lateral tail vein under isoflurane anesthesia. To determine the receptor specificity of both peptide parts of the labeled HBPLs and their relative contribution to overall tumor uptake, blocking experiments were also performed. […] After i.v. injection of the tracers, a dynamic PET scan, followed by a CT scan, was performed. The resulting PET/CT images and time–activity curves (TACs) are depicted in Figure 6, Figure 7 and Figure 8. After completion of the diagnostic scans, the mice were sacrificed, their organs (blood, spleen, liver, kidney, pancreas, lung, heart, brain, bone, muscle, tail, tumors, stomach, colon and small intestine) were collected and measured in a γ-counter for ex vivo biodistribution (see Supplementary Materials Table S1 for detailed results).
(§2) Each male nude mouse (six weeks old) was injected subcutaneously with 5 × 10^5 B16F10 cells into the right flank and 2.0–2.5 × 10^6 U87MG cells into the left flank. The health status and tumor growth of the mice were monitored regularly until the animals could be examined after 15–21 days, depending on the tumor size. For the in vivo experiments, the ^18F-radiolabeled compound was diluted in 0.9% saline to give a final EtOH concentration of <10%. Each mouse was injected with 4.15 ± 2.28 MBq of [^18F]2 or 3.95 ± 2.06 MBq of [^18F]4 via the lateral tail vein under isoflurane anesthesia. […] Each ^18F-labeled compound was studied with or without blocking in at least three mice. Mice were measured under isoflurane anesthesia in a small PET/SPECT/CT animal imaging system. First, a dynamic PET scan was performed over 90 min and the scan was framed in 29 timeframes (10 × 1 min, 10 × 2 min, 6 × 5 min, 3 × 10 min). Images were reconstructed using 12 iterations, a maximum likelihood expectation maximization (MLEM) algorithm including corrections for scattered radiation and decay and a voxel size of 0.5 mm. All PET scans were immediately followed by CT acquisition at a voltage of 45 kV and a current of 400 μA. The images were reconstructed using the filtered back projection (FBP) algorithm with a voxel size of 250 μm. The analysis of the data, including the generation of TACs of the kidneys, liver and tumors and the MIPs, was performed via PMOD (v3.8). For ex vivo biodistribution, the mice were sacrificed directly after the PET/CT scan. Organs (blood, spleen, liver, kidneys, pancreas, lungs, heart, brain, bone, muscle, tail, tumors, stomach, colon and small intestine) were collected, weighed and their radioactivity measured in a γ-counter. The percentage injected dose per gram (% ID/g) of each tissue was calculated from the determined values, organ weights, reference values and injected activity.

The subject of series [3] is integrin αvβ3-positive U87MG tumors. The series is described as above. The arrangement: species or system nude mice (Balb/cAnNRj-Foxn1nu/nu). Particulars: c(RGDyK) blocking (200 μg coinjected); ex vivo after PET/CT scan; i.v.; n = 3. On the procedure: as §1, §2
Setting [4] is: NDP blocking (20 μg coinjected).
[5] abbreviates: c(RGDyK) blocking (200 μg coinjected).
Setting [6] is: double blocking (NDP + c(RGDyK)).
The mark [7] stands for this setting: U87MG tumor / blood, without blocking, read-out: tumor/blood ratio, U87MG.
Setting [8] is: U87MG tumor / kidneys, without blocking, read-out: tumor/kidneys ratio, U87MG.
The mark [9] stands for this setting: U87MG tumor / liver, without blocking, read-out: tumor/liver ratio, U87MG.
Where [10] appears, read: U87MG tumor / muscle, without blocking, read-out: tumor/muscle ratio, U87MG.

The structures appear in SMILES notation. Read-outs that look alike come from different tables or passages of the source.

One may read the tissue uptake as the share of the injected amount in each gram of the tissue.

Take `CCCC[C@H](NC(=O)CNC(=O)CNC(=O)CCOCCOCCOCCOCCC(=O)NCCCN(CCCNC(=O)CCOCCOCCOCCOCCC(=O)NCCCC[C@@H]1NC(=O)[C@@H](Cc2ccccc2)NC(=O)[C@H](CC(=O)O)NC(=O)CNC(=O)[C@H](CCCNC(=N)N)NC1=O)CC(=O)N[C@@H](CCCCNC(=O)CCC[N+](C)(C)Cc1ccc([Si](F)(C(C)(C)C)C(C)(C)C)cc1)C(N)=O)C(=O)N[C@H]1CC(=O)NCCCC[C@@H](C(N)=O)NC(=O)[C@H](Cc2c[nH]c3ccccc23)NC(=O)[C@H](CCCNC(=N)N)NC(=O)[C@@H](Cc2ccccc2)NC(=O)[C@H](Cc2c[nH]cn2)NC1=O` [[^18F]2]: the remaining at 2 h in series [1] was 85.4 ± 2.8%. In addition, the tissue uptake in series [2] (setting [4]) was found to be 3.19 ± 0.33 %ID/g; in series [2] (setting [5]), 1.48 ± 0.12 %ID/g; in series [2] (setting [6]) it was 1 ± 0.11 %ID/g; in series [2] (without blocking), 2.33 ± 0.46 %ID/g. For the same compound, the tissue to tissue ratio turned out to be 2.4 ± 0.67 in series [2] (setting [7]), 0.18 ± 0.02 in series [2] (setting [8]), 0.14 ± 0.03 in series [2] (setting [9]) and 0.79 ± 0.66 in series [2] (setting [10]). In series [2] (without blocking), the tissue uptake at 1.5 h was determined as 2.33 ± 0.46 %ID/g. Also, in series [3], the “ID/g, U87MG tumor” value came to 1.48 ± 0.12 % ID/g.
As to `CCCC[C@H](NC(=O)CNC(=O)CNC(=O)CCOCCOCCOCCOCCOCCOCCOCCOCCOCCC(=O)NCCCN(CCCNC(=O)CCOCCOCCOCCOCCOCCOCCOCCOCCOCCC(=O)NCCCC[C@@H]1NC(=O)[C@@H](Cc2ccccc2)NC(=O)[C@H](CC(=O)O)NC(=O)CNC(=O)[C@H](CCCNC(=N)N)NC1=O)CC(=O)N[C@@H](CCCCNC(=O)CCC[N+](C)(C)Cc1ccc([Si](F)(C(C)(C)C)C(C)(C)C)cc1)C(N)=O)C(=O)N[C@H]1CC(=O)NCCCC[C@@H](C(N)=O)NC(=O)[C@H](Cc2c[nH]c3ccccc23)NC(=O)[C@H](CCCNC(=N)N)NC(=O)[C@@H](Cc2ccccc2)NC(=O)[C@H](Cc2c[nH]cn2)NC1=O` [[^18F]4], the remaining at 2 h in series [1] came out at 83.6 ± 0.8%. In addition, the tissue uptake in series [2] (setting [4]) stood at 2.53 ± 0.15 %ID/g; in series [2] (setting [5]) it was 2.67 ± 0.66 %ID/g; in series [2] (setting [6]), 0.9 ± 0.05 %ID/g; in series [2] (without blocking), 3.92 ± 1.31 %ID/g. Besides, the tissue to tissue ratio amounted to 5.08 ± 0.75 in series [2] (setting [7]), 0.4 ± 0.07 in series [2] (setting [8]), 0.39 ± 0.14 in series [2] (setting [9]) and 45.7 ± 8.62 in series [2] (setting [10]). The tissue uptake at 1.5 h in series [2] (without blocking) amounted to 3.92 ± 1.31 %ID/g. Besides, the “ID/g, U87MG tumor” value in series [3] turned out to be 2.67 ± 0.66 % ID/g.

For the origin of these results see publication PMC8228600, “Design, Synthesis, In Vitro and In Vivo Evaluation of Heterobivalent SiFAlin-Modified Peptidic Radioligands Targeting Both Integrin αvβ3 and the MC1 Receptor—Suitable for the Specific Visualization of Melanomas?” (Pharmaceuticals, 2021).
